Patent publication US20020052295A1, “Diacyl derivatives of propylene diamine having herbicidal activity” (priority 1999, published 2002)

Assays:
ECHCG [1] = test: Pre-emergence herbicidal activity on ECHCG (barnyardgrass); format: in vivo, Echinochloa crus-galli; settings: lowest tested rate giving 80% or greater inhibition, approx. 14 days after planting and treating, greenhouse
Summary of the method: (§1)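 Seeds sown on sterilized fertilized topsoil in pots, covered to level, then compound in 50:50 acetone/water sprayed on soil surface. Greenhouse 30/21 °C day/night, 0.64 cm overhead irrigation, then mist/subirrigation. Percent inhibition vs untreated plants scored ~14 days after treatment; GR80 derived, highest rate typically 1000 g/ha.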

PANMI [2] = test: Pre-emergence herbicidal activity on PANMI (wild proso millet); format: in vivo, Panicum miliaceum; settings: lowest tested rate giving 80% or greater inhibition, approx. 14 days after planting and treating, greenhouse
Summary of the method: as §1

SORHA [3] = test: Post-emergence herbicidal activity on SORHA (johnsongrass, seedling); format: in vivo, Sorghum halepense; settings: post-emergence spray; lowest tested rate with 80% or greater inhibition; about 14 days after treatment
Description: (§2) All such uses, and the biological activity enabling such uses, are embraced by the term “herbicidal” herein. Tables 15 and 16 summarize results of tests conducted as described below to determine the pre-emergence herbicidal activity, in the form of a GR80 value, of illustrative compounds of this invention. […] Where herbicidal activity was evident but 80% inhibition was not achieved at the highest rate tested (typically 1000 g/ha), an asterisk (*) is shown in the following tables. Herbicidal activity evident in the form of symptoms of phytotoxicity, in the absence of at least 80% inhibition at any rate, is indicated in the tables by “phyto”. A blank cell in the following tables indicates no herbicidal or phytotoxic response at any rate tested.
(§3) In another set of tests, the post-emergence activity of compounds of this invention was evaluated on the cool season species listed above. The following procedure was used.
(§4) A pre-prepared topsoil mixture (described above) was placed in a pot and compacted to a depth of 1.0 to 1.25 cm from the top of the pot. Seeds of each of several monocotyledonous and dicotyledonous annual plant species were placed on top of the soil The seeds were covered with a mixture of 50% topsoil and 50% Rediearth™ in sufficient quantity to level-fill the pots. The pots were then placed on a greenhouse bench and subirrigated as needed until plants growing from the seeds had emerged and reached a suitable growth stage for post-emergence treatment, typically 9 to 14 days after planting.
(§5) A known amount of each test compound dissolved or suspended in an appropriate organic solvent was diluted with a 50:50 mix of acetone and water and applied to the plants by spraying with a standard spray nozzle in a spray volume of 3,100 l/ha at a spray pressure of […] (30 psig). Control plants were not sprayed.
(§6) After treatment the plants were placed in a greenhouse with a 30/21° C. day/night temperature regime and were subsequently watered as needed for growth. Approximately 14 days after treatment, the plants were observed and herbicidal efficacy recorded as percent inhibition by comparison with control plants.

SETFA [4] = test: Post-emergence herbicidal activity on SETFA (giant foxtail); format: in vivo, Setaria faberi; settings: post-emergence spray; lowest tested rate with 80% or greater inhibition; about 14 days after treatment
Description: as §2, §3, §4, §5, §6

DATST [5] = test: Post-emergence herbicidal activity on DATST (jimsonweed); format: in vivo, Datura stramonium; settings: post-emergence spray; lowest tested rate with 80% or greater inhibition; about 14 days after treatment
Description: as §2, §3, §4, §5, §6

CIRAR [6] = test: Post-emergence herbicidal activity on CIRAR (canada thistle, seedling); format: in vivo, Cirsium arvense; settings: post-emergence spray; lowest tested rate with 80% or greater inhibition; about 14 days after treatment
Description: as §2, §3, §4, §5, §6

ABUTH = test: Post-emergence herbicidal activity on ABUTH (velvetleaf); format: in vivo, Abutilon theophrasti; settings: post-emergence spray; lowest tested rate with 80% or greater inhibition; about 14 days after treatment
Description: as §2, §3, §4, §5, §6

PANDI [7] = test: Pre-emergence herbicidal activity on PANDI (fall panicum); format: in vivo, Panicum dichotomiflorum; settings: lowest tested rate giving 80% or greater inhibition, approx. 14 days after planting and treating, greenhouse
Summary of the method: as §1

ECHCG [8] = test: Post-emergence herbicidal activity on ECHCG (barnyardgrass); format: in vivo, Echinochloa crus-galli; settings: post-emergence spray; lowest tested rate with 80% or greater inhibition; about 14 days after treatment
Description: as §2, §3, §4, §5, §6

PANDI [9] = test: Post-emergence herbicidal activity on PANDI (fall panicum); format: in vivo, Panicum dichotomiflorum; settings: post-emergence spray; lowest tested rate with 80% or greater inhibition; about 14 days after treatment
Description: as §2, §3, §4, §5, §6

SORHA [10] = test: Pre-emergence herbicidal activity on SORHA (johnsongrass, seedling); format: in vivo, Sorghum halepense; settings: lowest tested rate giving 80% or greater inhibition, approx. 14 days after planting and treating, greenhouse
Summary of the method: as §1

BRAPP [11] = test: Post-emergence herbicidal activity on BRAPP (broadleaf signalgrass); format: in vivo, Brachiaria platyphylla; settings: post-emergence spray; lowest tested rate with 80% or greater inhibition; about 14 days after treatment
Description: as §2, §3, §4, §5, §6

CIRAR [12] = test: Pre-emergence herbicidal activity on CIRAR (canada thistle, seedling); format: in vivo, Cirsium arvense; settings: lowest tested rate giving 80% or greater inhibition, approx. 14 days after planting and treating, greenhouse
Summary of the method: as §1

POROL [13] = test: Post-emergence herbicidal activity on POROL (common purslane; table head prints PORAL); format: in vivo, Portulaca oleracea; settings: post-emergence spray; lowest tested rate with 80% or greater inhibition; about 14 days after treatment
Description: as §2, §3, §4, §5, §6

DIGSA [14] = test: Pre-emergence herbicidal activity on DIGSA (large crabgrass); format: in vivo, Digitaria sanguinalis; settings: lowest tested rate giving 80% or greater inhibition, approx. 14 days after planting and treating, greenhouse
Summary of the method: as §1

DIGSA [15] = test: Post-emergence herbicidal activity on DIGSA (large crabgrass); format: in vivo, Digitaria sanguinalis; settings: post-emergence spray; lowest tested rate with 80% or greater inhibition; about 14 days after treatment
CHEAL [16] = test: Pre-emergence herbicidal activity on CHEAL (common lambsquarters); format: in vivo, Chenopodium album; settings: lowest tested rate giving 80% or greater inhibition, approx. 14 days after planting and treating, greenhouse
Summary of the method: as §1

SORVU = test: Post-emergence herbicidal activity on SORVU (shattercane); format: in vivo, Sorghum vulgare; settings: post-emergence spray; lowest tested rate with 80% or greater inhibition; about 14 days after treatment
Description: as §2, §3, §4, §5, §6

DATST [17] = test: Pre-emergence herbicidal activity on DATST (jimsonweed); format: in vivo, Datura stramonium; settings: lowest tested rate giving 80% or greater inhibition, approx. 14 days after planting and treating, greenhouse
Summary of the method: as §1

CONAR [18] = test: Pre-emergence herbicidal activity on CONAR (field bindweed); format: in vivo, Convolvulus arvensis; settings: lowest tested rate giving 80% or greater inhibition, approx. 14 days after planting and treating, greenhouse
Summary of the method: as §1

BRAPP [19] = test: Pre-emergence herbicidal activity on BRAPP (broadleaf signalgrass); format: in vivo, Brachiaria platyphylla; settings: lowest tested rate giving 80% or greater inhibition, approx. 14 days after planting and treating, greenhouse
Summary of the method: as §1

SOLNI [20] = test: Post-emergence herbicidal activity on SOLNI (black nightshade); format: in vivo, Solanum nigrum; settings: post-emergence spray; lowest tested rate with 80% or greater inhibition; about 14 days after treatment
Description: as §2, §3, §4, §5, §6

SETFA [21] = test: Pre-emergence herbicidal activity on SETFA (giant foxtail); format: in vivo, Setaria faberi; settings: lowest tested rate giving 80% or greater inhibition, approx. 14 days after planting and treating, greenhouse
Summary of the method: as §1

POROL [22] = test: Pre-emergence herbicidal activity on POROL (common purslane); format: in vivo, Portulaca oleracea; settings: lowest tested rate giving 80% or greater inhibition, approx. 14 days after planting and treating, greenhouse
Summary of the method: as §1

CONAR [23] = test: Post-emergence herbicidal activity on CONAR (field bindweed); format: in vivo, Convolvulus arvensis; settings: post-emergence spray; lowest tested rate with 80% or greater inhibition; about 14 days after treatment
Description: as §2, §3, §4, §5, §6

SOLNI [24] = test: Pre-emergence herbicidal activity on SOLNI (black nightshade); format: in vivo, Solanum nigrum; settings: lowest tested rate giving 80% or greater inhibition, approx. 14 days after planting and treating, greenhouse
Summary of the method: as §1

AMARE [25] = test: Post-emergence herbicidal activity on AMARE (redroot pigweed); format: in vivo, Amaranthus retroflexus; settings: post-emergence spray; lowest tested rate with 80% or greater inhibition; about 14 days after treatment
Description: as §2, §3, §4, §5, §6

AMARE [26] = test: Pre-emergence herbicidal activity on AMARE (redroot pigweed); format: in vivo, Amaranthus retroflexus; settings: lowest tested rate giving 80% or greater inhibition, approx. 14 days after planting and treating, greenhouse
Summary of the method: as §1

CHEAL [27] = test: Post-emergence herbicidal activity on CHEAL (common lambsquarters); format: in vivo, Chenopodium album; settings: post-emergence spray; lowest tested rate with 80% or greater inhibition; about 14 days after treatment
Description: as §2, §3, §4, §5, §6

PANMI [28] = test: Post-emergence herbicidal activity on PANMI (wild proso millet); format: in vivo, Panicum miliaceum; settings: post-emergence spray; lowest tested rate with 80% or greater inhibition; about 14 days after treatment
dicotyledonous species = test: Greenhouse post-emergence test in combination with glyphosate, dicotyledonous species; format: in vivo; settings: glyphosate isopropylammonium salt alone at 1000 g a.e./ha
Description: as §4, §5, §6
(§7) In a greenhouse post-emergence test conducted according to the procedure described hereinabove, R-2-fluoro-3-trifluoromethyl-N-[1-methyl-2-(3-trifluoromethyl)phenylcarbonylamino]ethylbenzamide (the compound of Example 13) was applied at 0, 64, 125 and 250 g/ha in combination with glyphosate isopropylammonium salt at 1000 g a.e./ha. The glyphosate herbicide alone gave 72% control of dicotyledonous species and 84% control of monocotyledonous species. […] At 250 g/ha, addition of the compound of Example 13 gave 93% control of dicotyledonous species, but reduced control of monocotyledonous species to 73%.

monocotyledonous species = test: Greenhouse post-emergence test in combination with glyphosate, monocotyledonous species; format: in vivo; settings: glyphosate isopropylammonium salt alone at 1000 g a.e./ha
Description: as §4, §5, §6, §7

For C[C@H](CNC(=O)c1cccc(C(F)(F)F)c1)NC(=O)Oc1ccc(F)cc1 [Example 230], the “Pre-emergence activity (GR80) on ECHCG” value (ECHCG [1]) was “phyto”, the “Pre-emergence activity (GR80) on PANMI” value (PANMI [2]) was “phyto” and the “Post-emergence activity (GR80) SORHA” value (SORHA [3]) was “[empty]”. For the same compound, the “Post-emergence activity (GR80) SETFA” value (SETFA [4]) was “[empty]”, the “Post-emergence activity (GR80) DATST” value (DATST [5]) was “phyto” and the “Post-emergence activity (GR80) CIRAR” value (CIRAR [6]) was “[empty]”. The “Post-emergence activity (GR80) ABUTH” value (ABUTH) was “[empty]”, the “Pre-emergence activity (GR80) on PANDI” value (PANDI [7]) was 1000 g/ha and the “Post-emergence activity (GR80) ECHCG” value (ECHCG [8]) was “[empty]”. The “Post-emergence activity (GR80) PANDI” value (PANDI [9]) was “[empty]”, the “Pre-emergence activity (GR80) on SORHA” value (SORHA [10]) was “phyto” and the “Post-emergence activity (GR80) BRAPP” value (BRAPP [11]) was “[empty]”. The “Pre-emergence activity (GR80) on CIRAR” value (CIRAR [12]) was 750 g/ha, the “Post-emergence activity (GR80) PORAL” value (POROL [13]) was “phyto” and the “Pre-emergence activity (GR80) on DIGSA” value (DIGSA [14]) was 750 g/ha. The “Post-emergence activity (GR80) DIGSA” value (DIGSA [15]) was “phyto”, the “Pre-emergence activity (GR80) on CHEAL” value (CHEAL [16]) was 1000 g/ha and the “Post-emergence activity (GR80) SORVU” value (SORVU) was “[empty]”. For the same compound, the “Pre-emergence activity (GR80) on DATST” value (DATST [17]) was 750 g/ha, the “Pre-emergence activity (GR80) on CONAR” value (CONAR [18]) was “phyto” and the “Pre-emergence activity (GR80) on BRAPP” value (BRAPP [19]) was “phyto”. The “Post-emergence activity (GR80) SOLNI” value (SOLNI [20]) was “[empty]”, the “Pre-emergence activity (GR80) on SETFA” value (SETFA [21]) was “* (Where herbicidal activity was evident but 80% inhibition was not achieved at the highest rate tested (typically 1000 g/ha), an asterisk (*) is shown)” and the “Pre-emergence activity (GR80) on PORAL” value (POROL [22]) was 500 g/ha. For the same compound, the “Post-emergence activity (GR80) CONAR” value (CONAR [23]) was “phyto”, the “Pre-emergence activity (GR80) on SOLNI” value (SOLNI [24]) was “* (Where herbicidal activity was evident but 80% inhibition was not achieved at the highest rate tested (typically 1000 g/ha), an asterisk (*) is shown)” and the “Post-emergence activity (GR80) AMARE” value (AMARE [25]) was “phyto”. For the same compound, the “Pre-emergence activity (GR80) on AMARE” value (AMARE [26]) was 500 g/ha, the “Post-emergence activity (GR80) CHEAL” value (CHEAL [27]) was “phyto” and the “Post-emergence activity (GR80) PANMI” value (PANMI [28]) was “[empty]”.

In the case of “glyphosate isopropylammonium salt [reference compound]”, the “control of dicotyledonous species” value (dicotyledonous species) is reported as 72% and the “control of monocotyledonous species” value (monocotyledonous species) is reported as 84%.
